In article PMC6222672, “Pharmacokinetic and Metabolism Studies of 12-Riboside-Pseudoginsengenin DQ by UPLC-MS/MS and UPLC-QTOF-MS^E” (Molecules : A Journal of Synthetic Chemistry and Natural …, 2018):
“Also recorded” adds a separate entry of the source. Where two headings read alike, the source gives them in different places.

Legend:
[1] = Pharmacokinetic study of RPDQ in rats after intragastric and intravenous administration (UPLC-MS/MS of plasma); format: in vivo, Wistar rats; settings: for AUC(0-t): read-out: AUC(0–60); for bioavailability: read-out: F (absolute bioavailability)
Protocol: The experiments on animals were approved by the Review Committee of Animal Care and Use of Jilin University. The study was conducted according to the ethical principles for animal use and care. Wistar rats (200 ± 20 g) were provided by Changchun Yisi Laboratory Animal Co. Ltd. (Changchun, China). All rats were housed in an environmentally controlled room (12 h light/dark cycle; temperature: 22 ± 2 °C; relative humidity: 55 ± 5%), and except during fast before experiments, the rats were fed with standard laboratory food and water ad libitum.
In the pharmacokinetic study, the rats were divided into different groups (n = 6, three males and three females): (1) RPDQ (6 mg/kg, i.g.), (2) RPDQ (12 mg/kg, i.g.), (3) RPDQ (24 mg/kg, i.g.), and (4) RPDQ (0.3 mg/kg, i.v.).
From the fossa orbitalis vein, the whole blood (150 μL) was collected at 0.5, 0.75, 1, 2, 3, 4, 6, 9, 10, 12, 18, 24, 48, and 60 h after oral administration, and 0.25, 0.5, 0.75, 1, 1.5, 2, 2.5, 3, 6, 12, and 24 h after intravenous administration. All the blood samples were anticoagulated with sodium heparin. After collection, the whole blood was centrifuged at 4000 rpm and 4 °C for 20 min to obtain plasma.
Plasma samples (being stored at −20 °C before analysis) were thawed and vortexed at room temperature. The mixture of each plasma sample (50 μL) and 20R-panaxadiol solution (100 ng/mL, 500 μL) was vortexed (2 min) and centrifuged (13,000 rpm, 4 °C, 10 min). The clear supernatant was obtained and transferred into vials, and 2 μL of it were then kept in autosampler at 4 °C and injected for analysis.
The analysis of pharmacokinetic was conducted on a Waters ACQUITY UPLC System coupled with a XEVO TQ-S mass spectrometer equipped with an electrospray ionization source (Waters, Milford, MA, USA). Separation was performed on a Waters BEH C18 UPLC column (2.1 × 50 mm, 1.7 μm) at 40 °C. The mobile phase, 0.1% formic aqueous solution (A) and 0.1% formic acid in acetonitrile (B) in proportions, was adjusted with a gradient elution programme (0 min, 40% B; 0~2 min, 40~100% B; 2~2.5 min, 100% B; 2.5~2.6 min, 100~40% B; 2.6~3.5 min, […]). The flow rate was kept constant at 0.3 mL/min. Chromatography of the RPDQ and IS was performed within 3.5 min. The injection volume was 2 μL. The multiple reaction monitoring (MRM) mode was performed in ESI^+. The main parameters were as follows: capillary voltage: 3000 V; source temperature: 150 °C; desolvation temperature: 300 °C; desolvation gas flow: 800 L/h; cone gas flow: 150 L/h; nebulizer gas flow: 7 bar; collision gas flow: 0.15 mL/min; cone voltage: 35 V and 28 V for RPDQ and IS, respectively; collision energy: 10 eV and 6 eV for RPDQ and IS, respectively. Masslynx V4.1 workstation (Waters, Milford, MA, USA) was used for data acquisition and processing.
Samples containing RPDQ above the upper limit of quantification were diluted and re-analyzed. The pharmacokinetics analysis in non-compartmental mode was conducted by Drug and Statistics (DAS) 3.0 pharmacokinetic software programme (Mathematical Pharmacology Professional Committee of China, Shanghai, China). The concentration versus the time curve was plotted. The time to reach the peak concentration (Tmax) and the maximum plasma concentration (Cmax) were obtained after oral administration. The results are shown as the mean ± standard deviation. The absolute bioavailability (F%) was calculated using the equation (AUCp.o. × Dosei.v.)/(AUCi.v. × Dosep.o.) × 100%.

[2] = tested on: A549 cells; assay: MTT cell viability test, A549 cells; format: cell-based; settings: 1-200 μM, 44 h
Source text: Antitumor activity test of RPDQ in vitro by using S180, SPC-A-1 and A549 cells
Since the startmaterial for the semi-synthesis of 12-Riboside-pseudoginsengenin DQ (RPDQ) was pseudoginsengenin DQ (PDQ), the antitumor activities of RPDQ […]
and PDQ were both tested.
The SPC-A-1 and S180 tumor cell lines were purchased from Wuhan Procell Life Science & Technology Co,.Ltd. A549 tumor cell lines were purchased from iCell Bioscience Inc (Shanghai) Biological Co., Ltd.
2. Experimental procedure
S180 cells (1 × 10^5 cells/mL) were seeded into a 96-well plate. After 24 h, pretreated with various concentrations of RPDQ or PDQ (1-200 μM) for 44 h at 37℃, and the cells were treated with MTT for 4 h. The formazan crystal product in the cells were dissolved with acid isopropanol. The absorbance was measured at 570 nm with a […]
SPC-A-1/A549 cells(1×10^5 cells/mL) were seeded into a 96-well plate. After 24 h, pretreated with various concentrations of RPDQ or PDQ (1-200 μM) for 44 h at 37℃ , and the cells were treated with MTT for 4 h. […] The absorbance was measured at 490 nm with a […]
Cell viability was calculated by the following formula: Cell viability (%)= 1-{(ODcontrolgroup-ODtreatedgroup)/ODcontrol group×100%}.
All data were processed by statistical software SPSS 17.0. The data were expressed as Mean ± Standard Deviation. The differences between groups were analyzed by one-way analysis of variance. […]

[3] = both sexes, Wistar, rat, plasma, iv, rats, 0.3 mg/kg i.v.
[4] = both sexes, Wistar, rat, plasma, po, rats, 6 mg/kg intragastric
[5] = both sexes, Wistar, rat, plasma, po, rats, 12 mg/kg intragastric
[6] = both sexes, Wistar, rat, plasma, po, rats, 24 mg/kg intragastric

## CC(C)(O)[C@@H]1CC[C@@](C)([C@H]2CC[C@]3(C)[C@@H]2[C@H](O[C@@H]2O[C@H](CO)[C@@H](O)[C@H]2O)C[C@@H]2[C@@]4(C)CC[C@H](O)C(C)(C)[C@@H]4CC[C@]23C)O1 [RPDQ, 20S, 24S-12-O-β-D-ribofuranosyl-dammar-20, 24-epoxy-3β, 12β, 25-triol]
[1]; [3]
  AUC(0-inf): 8330 ± 270 ng·h/mL
  Tmax: 0.25 h
  half-life: 2.94 ± 0.51 h
  AUC(0-t): 8300 ± 258 ng·h/mL
[1]; both sexes, Wistar, rat, plasma, iv, rats, 0.3 mg/kg i.v., read-out: CLz (converted)
  clearance: 0.667 mL/min/kg
[1]; both sexes, Wistar, rat, plasma, iv, rats, 0.3 mg/kg i.v., read-out: Vz
  Vd: 11.52 ± 0.02 L/kg
[1]; [4]
  AUC(0-inf): 9570 ± 546 ng·h/mL
  Tmax: 7 ± 1.55 h
  half-life: 12.6 ± 1.28 h
  AUC(0-t): 9210 ± 608 ng·h/mL
[1]; both sexes, Wistar, rat, plasma, po, rats, 6 mg/kg intragastric vs 0.3 mg/kg i.v.
  bioavailability: 5.55%
[1]; [5]
  AUC(0-inf): 17700 ng·h/mL
  Tmax: 7.5 ± 1.63 h
  half-life: 12.8 ± 0.56 h
  AUC(0-t): 17100 ng·h/mL
[1]; both sexes, Wistar, rat, plasma, po, rats, 12 mg/kg intragastric vs 0.3 mg/kg i.v.
  bioavailability: 5.15%
[1]; [6]
  AUC(0-inf): 42600 ng·h/mL
  Tmax: 7 ± 1.55 h
  half-life: 13.7 ± 1.11 h
  AUC(0-t): 40400 ng·h/mL
[1]; both sexes, Wistar, rat, plasma, po, rats, 24 mg/kg intragastric vs 0.3 mg/kg i.v.
  bioavailability: 6.08%
[1]; both sexes, Wistar, rat plasma sample collected at 6 h after an oral dose of 12 mg/kg
  concentration at 6 h: 1000 ng/mL
[1]; rats, 6 mg/kg intragastric
  CLz: 10.5 ± 0.6 mL/min/kg
  Vz: 11.45 ± 1.55 L/kg
[1]; rats, 12 mg/kg intragastric
  CLz: 11.3 ± 0.367 mL/min/kg
  Vz: 12.53 ± 0.59 L/kg
[1]; rats, 24 mg/kg intragastric
  CLz: 9.5 ± 0.733 mL/min/kg
  Vz: 11.28 ± 1.69 L/kg
[1]; rats, after gastrointestinal administration
  time at which RPDQ could still be quantified in plasma: 60 h
[2]
  anticancer / anti-proliferation effect: good anti-proliferation effects; also recorded: significant anticancer activity
